Test: Evaluation of malodor neutralization: sniffer box evaluation by 12 expert panelists
Conditions: arithmetic mean of panelist ratings; line scale from no odor (0) to strongest imaginable (10), moderate (5) = unperfumed malodor reference; 1 g water added to each sample
Method: The object of the following experiments has been the evaluation of performance against feminine hygiene malodor out of sniffer boxes. For this purpose 12 expert panelists evaluated the samples from sniffer boxes. The malodor was placed on different cotton balls and put into an aroma-tight air bag with a volume of […] together with the raw materials placed in a petri dish. Perfume- and malodor intensities were evaluated on a continuous line scale with ten labels ranging from “no odor” (0) to “strongest imaginable” (10) odor with “moderate” (5) being the unperfumed malodor reference sample. Note that panelists only see the verbal anchors not the numbers (0-10) while rating. Results are arithmetic means of the individual panelist's ratings. Subsequently, the data obtained from the olfactory tests were evaluated statistically by a Friedmann-Test for overall difference between the samples followed by a pairwise comparison to identify significant differences among individual samples.

| Compound | Malodor (malodor intensity) |
| --- | --- |
| CC1CCC(C(C)C)C2(C1)OCC(CO)O2 (stereo not drawn) [C4, menthone glycerin acetal] | 4.4 |
| CC(=O)OC1CC(C)CCC1C(C)C (stereo not drawn) [c2, menthyl acetate] | 4.4 |
| CC1CCC(C(C)C)C(OC(=O)C(C)O)C1 (stereo not drawn) [C3, menthyl lactate] | 4.3 |

From patent US20240225915A1, “COMPOSITIONS FOR FIGHTING MALODORS” (SYMRISE AG, priority 2021, published 2024)
